Assay results: ChEMBL document CHEMBL3879907, “8-azabicyclo[3.2.1]octane compounds as mu opioid receptor antagonists” (2014)

Tests used:
[1] = target: Delta-type opioid receptor (Homo sapiens, UniProt P41143); assay: Displacement of [3H]-diprenorphine from human delta opioid receptor expressed in cell membranes
[2] = target: Kappa-type opioid receptor (Cavia porcellus, UniProt P41144); assay: Displacement of [3H]-diprenorphine from guinea pig kappa opioid receptor expressed in CHOK1 cell membranes; conditions: cho-k1
Mus musculus [3] = assay: Reversal of morphine-induced delayed gastrointestinal transit in po dosed mouse compound administered prior to morphine challenge followed by non-nutritive, non-absorbable charcol meal administration by oral gavage at 5 mins post morphine challenge for 60 mins; format: functional; conditions: read-out: ID50 (the source's name)
Mus musculus [4] = assay: Reversal of morphine-induced delayed gastrointestinal transit in sc dosed mouse compound administered prior to morphine challenge followed by non-nutritive, non-absorbable charcol meal administration by oral gavage at 5 mins post morphine challenge for 60 mins; format: functional; conditions: read-out: ID50 (the source's name)
[5] = target: Mu-type opioid receptor (Homo sapiens) (UniProt P35372); assay: Intrinsic activity at human mu opioid receptor expressed in CHOK1 cell membranes at 0.00001 to 20 uM after 30 mins by GTP-Eu nucleotide exchange assay relative to DAMGO; format: functional; conditions: CHO-K1
Mu-type opioid receptor (Homo sapiens), sequence (P35372 whole entry): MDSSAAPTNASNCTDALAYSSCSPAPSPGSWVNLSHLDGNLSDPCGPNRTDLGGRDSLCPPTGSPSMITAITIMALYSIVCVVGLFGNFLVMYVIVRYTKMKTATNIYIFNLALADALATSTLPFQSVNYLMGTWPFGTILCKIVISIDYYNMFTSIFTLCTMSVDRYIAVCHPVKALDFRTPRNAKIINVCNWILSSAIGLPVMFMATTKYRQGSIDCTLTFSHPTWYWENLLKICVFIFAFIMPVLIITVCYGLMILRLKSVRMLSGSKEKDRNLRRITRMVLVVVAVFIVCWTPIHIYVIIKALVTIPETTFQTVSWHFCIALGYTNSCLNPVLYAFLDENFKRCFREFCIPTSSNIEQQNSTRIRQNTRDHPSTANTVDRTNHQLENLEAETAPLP

Delta-type opioid receptor, sequence (P41143 whole entry): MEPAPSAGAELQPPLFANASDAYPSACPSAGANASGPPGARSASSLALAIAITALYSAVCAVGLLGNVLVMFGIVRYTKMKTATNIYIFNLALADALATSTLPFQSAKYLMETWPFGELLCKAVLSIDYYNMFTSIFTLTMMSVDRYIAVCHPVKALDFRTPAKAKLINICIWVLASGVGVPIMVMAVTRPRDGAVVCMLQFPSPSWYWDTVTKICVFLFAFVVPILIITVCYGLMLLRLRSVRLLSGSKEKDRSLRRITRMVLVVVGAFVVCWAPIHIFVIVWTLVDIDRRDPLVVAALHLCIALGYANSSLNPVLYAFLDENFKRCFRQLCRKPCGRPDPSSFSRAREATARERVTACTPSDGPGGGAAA
Kappa-type opioid receptor, sequence (P41144 whole entry): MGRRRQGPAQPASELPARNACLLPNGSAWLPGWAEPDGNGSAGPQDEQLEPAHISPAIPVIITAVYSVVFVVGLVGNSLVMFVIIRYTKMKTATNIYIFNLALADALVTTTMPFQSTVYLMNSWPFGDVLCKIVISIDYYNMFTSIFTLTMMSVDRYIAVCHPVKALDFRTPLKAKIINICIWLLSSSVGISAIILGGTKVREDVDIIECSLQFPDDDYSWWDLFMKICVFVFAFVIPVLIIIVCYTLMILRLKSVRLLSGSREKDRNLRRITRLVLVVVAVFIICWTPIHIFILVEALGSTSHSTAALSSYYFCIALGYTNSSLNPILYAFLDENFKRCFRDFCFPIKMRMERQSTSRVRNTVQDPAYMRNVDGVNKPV

NC(=O)c1cccc([C@H]2C[C@H]3CC[C@@H](C2)N3CCN(Cc2ccccc2)C(=O)CO)c1
pKi [1]: 7 to 10.5
pKi [2]: 7 to 10.5
ED50 (Mus musculus [3]): 0.1 to 3 mg/kg
ED50 (Mus musculus [4]): 0.1 to 3 mg/kg

NC(=O)c1cccc([C@H]2C[C@H]3CC[C@@H](C2)N3CCN(CC2CCCCC2)C(=O)[C@@H](O)CO)c1 [AXELOPRAN]
ED50 (Mus musculus [3]): 0.1 to 3 mg/kg
ED50 (Mus musculus [4]): 0.1 to 3 mg/kg

NC(=O)c1cccc([C@H]2C[C@H]3CC[C@@H](C2)N3CCN(CC2CCC(F)(F)CC2)C(=O)CO)c1
pKi [1]: 7 to 10.5
Intrinsic activity [5]: < 40%
pKi [2]: 7 to 10.5
ED50 (Mus musculus [3]): 0.1 to 3 mg/kg
ED50 (Mus musculus [4]): 0.1 to 3 mg/kg

NC(=O)c1cccc([C@H]2C[C@H]3CC[C@@H](C2)N3CCN(CC2CCCCC2)C(=O)[C@@H](O)CO)c1.O=S(=O)(O)O [AXELOPRAN SULFATE]
ED50 (Mus musculus [3]): 0.1 to 3 mg/kg
ED50 (Mus musculus [4]): 0.1 to 3 mg/kg

NC(=O)c1cccc([C@H]2C[C@H]3CC[C@@H](C2)N3CCN(CCc2ccccc2)C(=O)CO)c1
pKi [1]: 7 to 10.5
ED50 (Mus musculus [3]): 0.1 to 3 mg/kg
ED50 (Mus musculus [4]): 0.1 to 3 mg/kg

NC(=O)c1cccc([C@H]2C[C@H]3CC[C@@H](C2)N3CCN(CC2CCCCC2)C(=O)[C@@H](O)CO)c1.O=C(O)C(=O)O
pKi [1]: 7 to 10.5
pKi [2]: 7 to 10.5
ED50 (Mus musculus [3]): 0.1 to 3 mg/kg
ED50 (Mus musculus [4]): 0.1 to 3 mg/kg

CC(C)(O)C(=O)N(CCN1[C@@H]2CC[C@H]1C[C@@H](c1cccc(C(N)=O)c1)C2)Cc1ccccc1.O=C(O)C(F)(F)F
pKi [1]: 7 to 10.5
Intrinsic activity [5]: < 40%
pKi [2]: 7 to 10.5

CC(C)(C)C(=O)N(CCN1[C@@H]2CC[C@H]1C[C@@H](c1cccc(C(N)=O)c1)C2)Cc1ccccc1.O=C(O)C(F)(F)F
pKi [1]: 7 to 10.5
Intrinsic activity [5]: < 40%
pKi [2]: 7 to 10.5

CS(=O)(=O)CC(=O)N(CCN1[C@@H]2CC[C@H]1C[C@@H](c1cccc(C(N)=O)c1)C2)CC1CCCCC1
pKi [1]: 7 to 10.5
Intrinsic activity [5]: < 40%
pKi [2]: 7 to 10.5

N#CCC(=O)N(CCN1[C@@H]2CC[C@H]1C[C@@H](c1cccc(C(N)=O)c1)C2)Cc1ccccc1.O=C(O)C(F)(F)F
pKi [1]: 7 to 10.5
Intrinsic activity [5]: < 40%
pKi [2]: 7 to 10.5

O=C(O)CS(=O)(=O)CC(=O)N(CCN1[C@@H]2CC[C@H]1C[C@@H](c1cccc(O)c1)C2)CC1CCCCC1
pKi [1]: 7 to 10.5
Intrinsic activity [5]: < 40%
pKi [2]: 7 to 10.5

NC(=O)c1cccc([C@H]2C[C@H]3CC[C@@H](C2)N3CCN(CC2CCCC2)C(=O)[C@H]2CC[C@H](O)CC2)c1.O=C(O)C(F)(F)F
pKi [1]: 7 to 10.5
Intrinsic activity [5]: < 40%
pKi [2]: 7 to 10.5

CS(=O)(=O)CC(=O)N(CCN1[C@@H]2CC[C@H]1C[C@@H](c1cccc(C(N)=O)c1)C2)CC1CCCC1.O=C(O)C(F)(F)F
pKi [1]: 7 to 10.5
Intrinsic activity [5]: < 40%
pKi [2]: 7 to 10.5

CS(=O)(=O)Nc1cccc([C@H]2C[C@H]3CC[C@@H](C2)N3CCN(CC2CCCCC2)C(=O)CO)c1
pKi [1]: 7 to 10.5
Intrinsic activity [5]: < 40%
pKi [2]: 7 to 10.5

CCC(=O)N(CCN1[C@@H]2CC[C@H]1C[C@@H](c1cccc(O)c1)C2)CC1CCCCC1
pKi [1]: 7 to 10.5
Intrinsic activity [5]: < 40%
pKi [2]: 7 to 10.5

C[C@H](O)C(=O)N(CCN1[C@@H]2CC[C@H]1C[C@@H](c1cccc(C(N)=O)c1)C2)CC1CCC1.O=C(O)C(F)(F)F
pKi [1]: 7 to 10.5
Intrinsic activity [5]: < 40%
pKi [2]: 7 to 10.5

CC(CO)(CO)C(=O)N(CCN1[C@@H]2CC[C@H]1C[C@@H](c1cccc(C(N)=O)c1)C2)CC1CCC(F)(F)CC1.O=C(O)C(F)(F)F
pKi [1]: 7 to 10.5
Intrinsic activity [5]: < 40%
pKi [2]: 7 to 10.5

CC(C)(CO)C(=O)N(CCN1[C@@H]2CC[C@H]1C[C@@H](c1cccc(C(N)=O)c1)C2)CC1CCCCC1
pKi [1]: 7 to 10.5
Intrinsic activity [5]: < 40%
pKi [2]: 7 to 10.5

NC(=O)c1cccc([C@H]2C[C@H]3CC[C@@H](C2)N3CCN(CC2CCCCC2)C(=O)Nc2ccc3c(c2)OCO3)c1
pKi [1]: 7 to 10.5
Intrinsic activity [5]: < 40%
pKi [2]: 7 to 10.5

CS(=O)(=O)CC(=O)N(CCN1[C@@H]2CC[C@H]1C[C@@H](c1cccc(O)c1)C2)Cc1c(F)cccc1F
pKi [1]: 7 to 10.5
Intrinsic activity [5]: < 40%
pKi [2]: 7 to 10.5

CC(=O)N(CCCN1[C@@H]2CC[C@H]1C[C@@H](c1cccc(C(N)=O)c1)C2)CC1CCCCC1
pKi [1]: 7 to 10.5
Intrinsic activity [5]: < 40%
pKi [2]: 7 to 10.5

CN(C)S(=O)(=O)N(CCN1[C@@H]2CC[C@H]1C[C@@H](c1cccc(C(N)=O)c1)C2)CC1CCCCC1.O=C(O)C(F)(F)F
pKi [1]: 7 to 10.5
Intrinsic activity [5]: < 40%
pKi [2]: 7 to 10.5

C[C@H](CN1[C@@H]2CC[C@H]1C[C@@H](c1cccc(O)c1)C2)N(Cc1ccccc1)C(=O)Cc1ccccc1
pKi [1]: 7 to 10.5
Intrinsic activity [5]: < 40%
pKi [2]: 7 to 10.5

NC(=O)c1cccc([C@H]2C[C@H]3CC[C@@H](C2)N3CCN(CC2CCCC2)C(=O)[C@H](O)CO)c1.O=C(O)C(F)(F)F
pKi [1]: 7 to 10.5
Intrinsic activity [5]: < 40%
pKi [2]: 7 to 10.5

NC(=O)c1cccc([C@H]2C[C@H]3CC[C@@H](C2)N3CCN(Cc2c(F)cccc2F)C(=O)[C@H](O)CO)c1.O=C(O)C(F)(F)F
pKi [1]: 7 to 10.5
Intrinsic activity [5]: < 40%
pKi [2]: 7 to 10.5

NC(=O)c1cccc([C@H]2C[C@H]3CC[C@@H](C2)N3CCN(Cc2ccccc2)C(=O)[C@@H](O)CO)c1.O=C(O)C(F)(F)F
pKi [1]: 7 to 10.5
Intrinsic activity [5]: < 40%
pKi [2]: 7 to 10.5

CC(=O)N(CCN1[C@@H]2CC[C@H]1C[C@@H](c1cccc(O)c1)C2)CC1CCCCC1
pKi [1]: 7 to 10.5
Intrinsic activity [5]: < 40%
pKi [2]: 7 to 10.5

CC(C)(O)C(=O)N(CCCN1[C@@H]2CC[C@H]1C[C@@H](c1cccc(C(N)=O)c1)C2)Cc1ccccc1.O=C(O)C(F)(F)F
pKi [1]: 7 to 10.5
Intrinsic activity [5]: < 40%
pKi [2]: 7 to 10.5

NC(=O)c1cccc([C@H]2C[C@H]3CC[C@@H](C2)N3CCN(CC2CCC(F)(F)CC2)C(=O)[C@H](O)CO)c1.O=C(O)C(F)(F)F
pKi [1]: 7 to 10.5
Intrinsic activity [5]: < 40%
pKi [2]: 7 to 10.5

NC(=O)c1cccc([C@H]2C[C@H]3CC[C@@H](C2)N3CCN(Cc2c(F)cccc2F)C(=O)C2(O)CC2)c1.O=C(O)C(F)(F)F
pKi [1]: 7 to 10.5
Intrinsic activity [5]: < 40%
pKi [2]: 7 to 10.5

CC(=O)N(CCN1[C@@H]2CC[C@H]1C[C@@H](c1cccc(O)c1)C2)Cc1ccccc1
pKi [1]: 7 to 10.5
Intrinsic activity [5]: < 40%
pKi [2]: 7 to 10.5

COCC(=O)N(CCN1[C@@H]2CC[C@H]1C[C@@H](c1cccc(C(N)=O)c1)C2)Cc1ccccc1.O=C(O)C(F)(F)F
pKi [1]: 7 to 10.5
Intrinsic activity [5]: < 40%
pKi [2]: 7 to 10.5

O=C(O)CC(=O)N(CCN1[C@@H]2CC[C@H]1C[C@@H](c1cccc(O)c1)C2)Cc1c(F)cccc1F
pKi [1]: 7 to 10.5
Intrinsic activity [5]: < 40%
pKi [2]: 7 to 10.5

O=C(CO)N(CCN1[C@@H]2CC[C@H]1C[C@@H](c1cccc(O)c1)C2)Cc1ccc(F)cc1
pKi [1]: 7 to 10.5
Intrinsic activity [5]: < 40%
pKi [2]: 7 to 10.5

NC(=O)c1cccc([C@H]2C[C@H]3CC[C@@H](C2)N3CCN(CC2CCCCC2)C(=O)CO)c1
Intrinsic activity [5]: < 40%
ED50 (Mus musculus [3]): 0.1 to 3 mg/kg
ED50 (Mus musculus [4]): 0.1 to 3 mg/kg

NC(=O)c1cccc([C@H]2C[C@H]3CC[C@@H](C2)N3CCN(CCc2ccc(O)cc2)C(=O)CO)c1.O=C(O)C(F)(F)F
pKi [1]: 7 to 10.5
Intrinsic activity [5]: < 40%
pKi [2]: 7 to 10.5

C[C@H](O)C(=O)N(CCN1[C@@H]2CC[C@H]1C[C@@H](c1cccc(C(N)=O)c1)C2)Cc1c(F)cccc1F.O=C(O)C(F)(F)F
pKi [1]: 7 to 10.5
Intrinsic activity [5]: < 40%
pKi [2]: 7 to 10.5

NC(=O)c1cccc([C@H]2C[C@H]3CC[C@@H](C2)N3CCN(CCc2ccc(F)cc2)C(=O)CO)c1.O=C(O)C(F)(F)F
pKi [1]: 7 to 10.5
Intrinsic activity [5]: < 40%
pKi [2]: 7 to 10.5

O=C(NCc1ccccc1)N(CCN1[C@@H]2CC[C@H]1C[C@@H](c1cccc(O)c1)C2)CC1CCCCC1
pKi [1]: 7 to 10.5
Intrinsic activity [5]: < 40%
pKi [2]: 7 to 10.5

NC(=O)CCC(=O)N(CCN1[C@@H]2CC[C@H]1C[C@@H](c1cccc(O)c1)C2)CC1CCCCC1
pKi [1]: 7 to 10.5
Intrinsic activity [5]: < 40%
pKi [2]: 7 to 10.5
